Data: US20100099642A1, “TGF-BETA STIMULANT AND FURTHER AGENT TO REDUCE SIDE EFFECTS” (TCP Innovations Limited, priority 2007, published 2010)

Legend:
tgfb1 mRNA = tgfb1 mRNA level by quantitative PCR in human aortic vascular smooth muscle cells; format: cell-based; details: 24 hrs, normalised to TBP, vs vehicle
Description: (1995) Cardiovasc. Res. 29:848-55). […] The cells were then incubated for either 24 hrs or 72 hrs depending on the experiment. All treatment conditions were established in triplicate. The level of mRNA for tgfb1, tgfb2 and tgfb3 were estimated by quantitative PCR. The media was removed and RNA was carefully prepared using the Ambion RNAqueous4PCR kit (Ambion#1914) in accordance with the manufacturer's instructions. The purity of the RNA and the quantity was assessed spectrophotometrically. […] This analysis results in both a gel-like image as well as electrophoretic data. Indications of RNA degradation are: (a) decreasing ratio of ribosomal bands (b) additional peaks bellow the ribosomal bands (c) Decrease in overall RNA signal (d) shift towards shorter fragments. All the mRNA samples used in the experiments presented here passed this RNA quality control step. Next, the RNA was converted to cDNA using the ABI High-Capacity cDNA Archive Kit, in accordance with manufacturer's instructions. The qPCR assay was then set up as follow: all cDNA samples were diluted to 180 μl total volume using Molecular grade water. Samples were vortexed to ensure thorough mixing. cDNA was aliquoted into ABI 384 well plates using a multi-channel pipette, 4.5 μl of sample into each well. Samples were assayed in triplicate (that is, nine determinations in total were made for each condition, being three separate assays on each of three replicate culture wells). The assay mix and Universal Master Mix were prepared and aliquoted across the 384 well plates 5.5 μl in each well, using a single channel pipette. The final composition of each reaction (10 μl) being: Primer/Probe assay mix (×20)=0.5 μl; Universal Master Mix=5 μl; cDNA=4.5 μl. The plates were then heat sealed using Abgene clear seal strong plastic heat seals, and then cycled and scanned using the […] under the following conditions: 95° C. for 10 minutes to activate the AmpliTaq GOLD, then 40 cycles of: 95° C. for 15 Sec (Denaturation), 60° C. for 60 […]). […] Quantitative PCR was performed using several primer/probe sets. […] We used both commercially available primer/probe sets (ABI Taqman pre-validated assays), using both available sets in the ABI database for tgfb1 and tgfb2, as well as the single available set for tgfb3. In addition, we used our own manual design probe/primer set for each of tgfb1, tgfb2 and tgfb3. For normalisation, we used TATA-binding protein (TBP) as the primary normalisation standard, with GAPDH as an alternative for confirmation, using ABI Taqman pre-validated probe/primer sets. […] Neither TBP nor GAPDH mRNA levels are affected by TGF-beta and are therefore equally suitable, however TBP was selected as the primary normalisation standard because the absolute level of mRNA in most cell types is similar to that of the TGF-beta isoforms, resulting in lower errors on calculating the ratio, and improving the power of the experiment. In all quantitative PCR experiments, several additional controls were included: firstly, a control for each sample is run with no reverse transcription to ensure the mRNA sample is not contaminated with genomic DNA (although the manual design probe/primer sets were all selected to cross an exon/exon boundary, ensuring no detectable amplicon is produced from genomic DNA templates). Secondly, a control reaction is run using serial 2-fold dilutions of a standard cDNA preparation (prepared from commercially available IMAGE clones). This control ensures that the results for the unknown samples are obtained in the linear range of the amplification process, and are therefore truly quantitative. Failure of either control led to the repeat of the entire experiment. Typically, the half maximal signal was obtained after 20-30 amplification cycles. […]

apoE-deficient mice = test: vascular lipid lesion formation at the aortic root (Oil Red O) in apoE-deficient mice; format: in vivo, mouse; details: 12 weeks in chow, TMX 1 mg/kg/day, Aspirin 30 mg/kg/day, mean ± SD, n = 8
Excerpt: Adult male apoE-deficient mice, back-crossed onto a C57B16 background for at least five generations, were randomised into groups of eight animals at 12 weeks of age, such that each group had similar average body weight. […] Note that the mice receiving both compounds received food pellets into which a homogenous mixture of the ingredients had been compounded, and not a mixture of food pellets each containing one of the two active ingredients. The amount of food eaten and the body weight of each mouse was monitored daily for the first week, and once per week thereafter. After 12 weeks of treatment, the mice were sacrificed by CO2 asphyxiation, and heart & lung blocks were excised, embedded in Cryo-M-bed (Bright Instruments, UK) without fixation and snap frozen in liquid nitrogen.
Sections were then prepared from the aortic root according to the Paigen Strategy (a defined sequence of cutting sections which allow reproducible comparison between animals; see for example Grainger et al. (1995) Nature Med. 1:1067-72 and the references therein). 4 μm crysosections were cut using a motordriven cryotome (Bright Instruments) and collected onto poly-L-lysine coated glass microscope slides, then fixed in ice-cold acetone for 90 secs, allowed to air dry and stored at −20° C. until analysed.
The extent of vascular lipid lesion formation was assessed by Oil Red O staining, with a Fast Green counterstain, a standard histological procedure well known in the art. Briefly, five sections (selected according to the Paigen strategy) from each animal were passed through graded alcohol solutions, then stained in Oil Red O for 12 minutes, washed several times and then counterstained by dipping in Fast Green for 5-10 secs, and then dip washed in several changes of clean water. After air drying, an appropriate mountant was applied (simple glycerol-based moutants are most appropriate for this task), followed by a coverslip using acrylic varnish surrounding the coverslip to hold it in place. Slides were then analysed using a simple inverted microscope (no phase contrast; 10× objective; Olympus AX series), fitted with a digital camera to capture images of the entire aortic wall. The images were subsequently processed, blind to the treatment status of the animal, using Openlab image analysis software (Improvision, UK) running on an Apple Macintosh computer. […]
Mice were sacrificed and heart & lung blocks prepared and processed exactly as described in Example 2. […] The extent of lipid lesion formation was assessed by Oil Red O staining with Fast Green counterstain, exactly as in example 2.

SMILES | Level of tgfb1 mRNA, estimated by qPCR (tgfb1 mRNA; 10 μM A) [fold-change] | Level of tgfb1 mRNA, estimated by qPCR (tgfb1 mRNA; 33 μM A) [fold-change] | Level of tgfb1 mRNA, estimated by qPCR (tgfb1 mRNA; 100 μM A) [fold-change] | Total intimal area (apoE-deficient mice) | Level of tgfb1 mRNA, estimated by qPCR (tgfb1 mRNA; 3.3 μM T) [fold-change] | Level of tgfb1 mRNA, estimated by qPCR (tgfb1 mRNA; 10 μM T) [fold-change] | Level of tgfb1 mRNA, estimated by qPCR (tgfb1 mRNA; 33 μM T, listed as T) [fold-change] | Level of tgfb1 mRNA, estimated by qPCR (tgfb1 mRNA; 33 μM T, listed as TMX) | Intimal lipid lesion area (apoE-deficient mice) | Lipid lesion area (apoE-deficient mice)
CC(=O)Oc1ccccc1C(=O)O [Aspirin, acetylsalicylic acid] | 1.01 ± 0.04 | 0.93 ± 0.11 | 1.06 ± 0.08 | 65,209 ± 6,712 μm2 | – | – | – | – | – | –
CC/C(=C(\c1ccccc1)c1ccc(OCCN(C)C)cc1)c1ccccc1 [Tamoxifen] | – | – | – | 64,428 ± 4,294 μm2 | 0.95 ± 0.16 | 1.27 ± 0.09 | 1.41 ± 0.08 | approximately 1.4 fold-change | 9,393 ± 2,221 μm2 | 10,794 ± 2,820 μm2
